Experimental data taken from patent US10906873B2, “Substituted cyclic amides as herbicides” (FMC Corporation, priority 2015, dated 2021).

How the values were obtained:
[1] = system: crabgrass (large crabgrass, Digitaria sanguinalis); experiment: Test A postemergence, crabgrass; type: in vivo; details: 1000 g ai/ha, 0 to 100 scale
Excerpt: (§1) Seeds of plant species selected from barnyardgrass (Echinochloa crus-galli), crabgrass (large crabgrass, Digitaria sanguinalis), kochia (Kochia scoparia), ragweed (common ragweed, Ambrosia elatior), morningglory (Ipomoea spp.), velvetleaf (Abutilon theophrasti), ryegrass, It. (Italian ryegrass, Lolium multiflorum), foxtail, giant (giant foxtail, Setaria faberii), wheat (Triticum aestivum), corn (Zea mays), and pigweed (Amaranthus retroflexus), were planted into a blend of loam soil and sand and treated preemergence with a directed soil spray using test chemicals formulated in a non-phytotoxic solvent mixture which included a surfactant. At the same time, plants selected from these crop and weed species and also blackgrass (Alopecurus myosuroides), and galium (catchweed bedstraw, Galium aparine), were planted in pots containing the same blend of loam soil and sand and treated with postemergence applications of test chemicals formulated in the same manner. Plants ranged in height from 2 to 10 cm and were in the one- to two-leaf stage for the postemergence treatment. Treated plants and untreated controls were maintained in a greenhouse for approximately 10 d, after which time all treated plants were compared to untreated controls and visually evaluated for injury. Plant response ratings, summarized in Table A, are based on a 0 to 100 scale where 0 is no effect and 100 is complete control. A dash (-) response means no test result.

corn (Zea mays) [2] = experiment: Test A preemergence, corn; type: in vivo; details: 1000 g ai/ha, 0 to 100 scale
Excerpt: as §1

[3] = system: morningglory (Ipomoea spp.); experiment: Test A preemergence, morningglory; type: in vivo; details: 1000 g ai/ha, 0 to 100 scale
Excerpt: as §1

[4] = system: sedge, umbrella (small-flower umbrella sedge, Cyperus difformis); experiment: Test B flooded paddy test, sedge, umbrella; type: in vivo; details: Flood, scale of 0 to 100 where 0 is no effect and 100 is complete control, 13 to 15 d
Method in brief: (§2)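 Plants grown to the 2-leaf stage. At treatment, pots were flooded to 3 cm above the soil, compound was applied directly to the paddy water, and that depth was held throughout. After 13 to 15 d in the greenhouse, response was rated visually against controls on a 0 (no effect) to 100 (complete control) scale.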

rice (Oryza sativa) = experiment: Test B flooded paddy test, rice; type: in vivo; details: Flood, scale of 0 to 100 where 0 is no effect and 100 is complete control, 13 to 15 d
Method in brief: as §2

[5] = system: foxtail, giant (giant foxtail, Setaria faberii); experiment: Test A preemergence, foxtail, giant; type: in vivo; details: 1000 g ai/ha, 0 to 100 scale
Method in brief: (§3)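 Visual injury rating, 0–100 scale (100 = complete control), ~10 d after treatment, relative to untreated controls. Greenhouse pots, loam soil/sand; compound in solvent mix with surfactant applied as soil spray preemergence or foliar postemergence at 1–2-leaf stage.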

[6] = system: morningglory (Ipomoea spp.); experiment: Test A postemergence, morningglory; type: in vivo; details: 1000 g ai/ha, 0 to 100 scale
Excerpt: as §1

[7] = system: crabgrass (large crabgrass, Digitaria sanguinalis); experiment: Test A preemergence, crabgrass; type: in vivo; details: 1000 g ai/ha, 0 to 100 scale
Excerpt: as §1

[8] = system: wheat (Triticum aestivum); experiment: Test A preemergence, wheat; type: in vivo; details: 1000 g ai/ha, 0 to 100 scale
Excerpt: as §1

[9] = system: barnyardgrass (Echinochloa crus-galli); experiment: Test B flooded paddy test, barnyardgrass; type: in vivo; details: Flood, scale of 0 to 100 where 0 is no effect and 100 is complete control, 13 to 15 d
Method in brief: as §2

[10] = system: pigweed (Amaranthus retroflexus); experiment: Test A postemergence, pigweed; type: in vivo; details: 1000 g ai/ha, 0 to 100 scale
Method in brief: as §3

[11] = system: wheat (Triticum aestivum); experiment: Test A postemergence, wheat; type: in vivo; details: 1000 g ai/ha, 0 to 100 scale
Method in brief: as §3

[12] = system: ducksalad (Heteranthera limosa); experiment: Test B flooded paddy test, ducksalad; type: in vivo; details: Flood, scale of 0 to 100 where 0 is no effect and 100 is complete control, 13 to 15 d
Method in brief: as §2

[13] = system: velvetleaf (Abutilon theophrasti); experiment: Test A postemergence, velvetleaf; type: in vivo; details: 1000 g ai/ha, 0 to 100 scale
Excerpt: as §1

[14] = system: foxtail, giant (giant foxtail, Setaria faberii); experiment: Test A postemergence, foxtail, giant; type: in vivo; details: 1000 g ai/ha, 0 to 100 scale
Method in brief: as §3

[15] = system: pigweed (Amaranthus retroflexus); experiment: Test A preemergence, pigweed; type: in vivo; details: 1000 g ai/ha, 0 to 100 scale
Method in brief: as §3

[16] = system: velvetleaf (Abutilon theophrasti); experiment: Test A preemergence, velvetleaf; type: in vivo; details: 1000 g ai/ha, 0 to 100 scale
Excerpt: as §1

[17] = system: barnyardgrass (Echinochloa crus-galli); experiment: Test A preemergence, barnyardgrass; type: in vivo; details: 1000 g ai/ha, 0 to 100 scale
Method in brief: as §3

[18] = system: barnyardgrass (Echinochloa crus-galli); experiment: Test A postemergence, barnyardgrass; type: in vivo; details: 1000 g ai/ha, 0 to 100 scale (0 no effect, 100 complete control)
Method in brief: as §3

corn (Zea mays) [19] = experiment: Test A postemergence, corn; type: in vivo; details: 1000 g ai/ha, 0 to 100 scale
Method in brief: as §3

Compound | Plant response rating, Crabgrass [1] | Plant response rating, Corn (corn (Zea mays) [2]) | Plant response rating, Morningglory [3] | Plant response rating, Sedge, Umbrella ([4]; 1000 g ai/ha) | Plant response rating, Rice (rice (Oryza sativa); 1000 g ai/ha) | Plant response rating, Foxtail, Giant [5] | Plant response rating, Morningglory [6] | Plant response rating, Crabgrass [7] | Plant response rating, Wheat [8] | Plant response rating, Barnyardgrass ([9]; 1000 g ai/ha) | Plant response rating, Pigweed [10] | Plant response rating, Wheat [11] | Plant response rating, Ducksalad ([12]; 1000 g ai/ha) | Plant response rating, Velvetleaf [13] | Plant response rating, Foxtail, Giant [14] | Plant response rating, Pigweed [15] | Plant response rating, Velvetleaf [16] | Plant response rating, Barnyardgrass [17] | Plant response rating, Barnyardgrass [18] | Plant response rating, Corn (corn (Zea mays) [19]) | also measured
O=C1NCC(Cc2cccc(Cl)c2)C1C(=O)Nc1ccccc1F (stereo not drawn) [Compound 2] | 80 | 0 | 0 | 0 | 0 | 80 | 0 | 90 | 0 | 0 | 0 | 0 | 0 | 0 | 60 | 0 | 0 | 30 | 30 | 0 | –
O=C1NCC(Cc2cccc(Cl)c2)C1C(=O)Nc1cccc(F)c1F (stereo not drawn) [Compound 1, 4-[(3-chlorophenyl)methyl]-N-(2,3-difluorophenyl)-2-oxo-3-pyrrolidinecarboxamide] | 80 | 0 | 0 | 0 | 0 | 90 | 0 | 90 | 0 | 0 | 0 | 0 | 50 | 10 | 80 | 0 | 0 | 70 | 80 | 0 | melting point: 132 to 134 °C
O=C1NCC(Cc2ccccc2)C1C(=O)Nc1ccccc1F (stereo not drawn) [Compound 3] | 0 | 0 | 0 | – | – | 0 | 0 | 0 | 0 | – | 0 | 0 | – | 0 | 0 | 0 | 0 | 0 | 0 | 0 | –
O=C1NCC(Cc2ccc(F)cc2)C1C(=O)Nc1cccc(F)c1F (stereo not drawn) [Compound 13, N-(2,3-difluorophenyl)-4-[(4-fluorophenyl)methyl]-2-oxo-3-pyrrolidinecarboxamide] | 80 | 0 | 0 | – | – | 60 | 0 | 80 | 0 | – | 0 | 0 | – | 0 | 60 | 0 | 0 | 80 | 80 | 0 | Plant response rating, Sedge, Umbrella ([4]; 250 g ai/ha): 0; Plant response rating, Rice (rice (Oryza sativa); 250 g ai/ha): 0; Plant response rating, Barnyardgrass ([9]; 250 g ai/ha): 0; Plant response rating, Ducksalad ([12]; 250 g ai/ha): 0
O=C1NCC(Cc2ccccc2)C1C(=O)Nc1cccc(F)c1F (stereo not drawn) [Compound 4] | 20 | 0 | 0 | – | – | 0 | 0 | 60 | 0 | – | 0 | 0 | – | 0 | 0 | 0 | 0 | 0 | 0 | 0 | –
